From patent US10106556B2, “Heterocyclic compound” (TAKEDA PHARMACEUTICAL COMPANY LIMITED, priority 2015, dated 2018)

Target: T1, His-hMAGL (recombinant polyhistidine tagged human MAGL protein) (Homo sapiens, UniProt Q99685)
T1 construct: made in house; host or cells: E. coli BL21(DE3)
T1 sequence (Q99685 1-303): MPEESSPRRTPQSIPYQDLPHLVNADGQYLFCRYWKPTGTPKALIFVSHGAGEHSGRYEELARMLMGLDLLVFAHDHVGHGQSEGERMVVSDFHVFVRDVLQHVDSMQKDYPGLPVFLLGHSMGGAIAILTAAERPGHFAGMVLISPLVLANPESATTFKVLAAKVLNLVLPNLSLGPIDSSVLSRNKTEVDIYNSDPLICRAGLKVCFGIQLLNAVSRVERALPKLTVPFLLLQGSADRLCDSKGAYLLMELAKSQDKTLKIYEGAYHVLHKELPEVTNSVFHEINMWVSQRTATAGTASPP
Experiment: Measurement of MAGL inhibitory activity (arachidonic acid production from 2-arachidonylglycerol, RapidFire-mass spectrometry)
Type: biochemical
Conditions: MAGL inhibitory rate at 10 μM test compound; 60 min preincubation with His-hMAGL, 2-arachidonylglycerol substrate, 10 min reaction at room temperature
Experimental: Furthermore, acetonitrile (50 μL) containing 3 μM arachidonic acid-d8 (Cayman Chemical Company) was added and the mixture was stirred.
The amount of arachidonic acid in the obtained enzyme reaction mixture was calculated by measuring by RapidFire-mass spectrometry and correcting by the amount of arachidonic acid-d8. High Throughput online solid phase extraction was performed using RapidFire 300™ system (Agilent Technologies, Inc.). Samples were loaded on SPE C4 cartridge (Agilent Technologies, Inc.) and desalted with 0.2 (v/v) % acetic acid (Wako Pure Chemical Industries, Ltd.) in ultrapure water/acetonitrile (70/30, v/v) at a flow rate of 1.5 mL/min, eluted at a flow rate of 0.5 mL/min with 0.2 (v/v) % acetic acid dissolved in acetonitrile/ultrapure water (90/10, v/v), and injected into the mass spectrometry part. The injection needle was washed with ultrapure water (500 millisecond) and acetonitrile (500 millisecond) to minimize carry-over. […] The RapidFire300 system was controlled by RapidFire UI software version 3.6 (Agilent Technologies, Inc.).
The mass spectrometry of the resultant product was performed using API4000™ triple quadrupole mass spectrometer (AB SCIEX) equipped with an electrospray ion sauce (TurboIon Spray™) in a negative selected reaction monitoring (SRM) mode. The conditions of SRM are shown below. The parameters of the instrument were optimized as follows: capillary temperature 600° C., ion spray voltage −4.5 kV, collision gas 8, curtain gas 15 psi, ion source gas 1 60 psi, ion source gas 2 60 psi. The mass spectrometer was controlled by Analyst™ software version 1.5.1 (AB SCIEX). The peak area integration was analyzed using RapidFire integrator software version 3.6 (Agilent Technologies, Inc.).
MAGL inhibitory rate (%) was calculated according to the following calculation formula. (1−(arachidonic acid production amount of test compound addition group−arachidonic acid production amount of enzyme−free group)÷(arachidonic acid production amount of test compound-free group−arachidonic acid production amount of enzyme-free group))×100

Compound `O=C1COc2cc(F)c(C(=O)N3CC(COc4ccccc4)C3)cc2N1` [Example 140, 7-fluoro-6-((3-(phenoxymethyl)azetidin-1-yl)carbonyl)-2H-1,4-benzoxazin-3(4H)-one] has an inhibition at 10 µM of 100%.
In the case of `O=C1COc2cc(F)c(C(=O)N3CC(COC4CCCCC4)C3)cc2N1` [Example 280, 6-((3-((cyclohexyloxy)methyl)azetidin-1-yl)carbonyl)-7-fluoro-2H-1,4-benzoxazin-3(4H)-one], the inhibition at 10 µM was 102%.
For `CC(Oc1c(F)cccc1F)C1CN(C(=O)c2cc3c(cc2F)OCC(=O)N3)C1` (centres unmarked) [Example 306, 6-((3-(1-(2,6-difluorophenoxy)ethyl)azetidin-1-yl)carbonyl)-7-fluoro-2H-1,4-benzoxazin-3(4H)-one], the inhibition at 10 µM was 100%.
`Cc1nc(C)c(-c2ccc(OCC3CN(C(=O)c4cc5c(cc4F)OCC(=O)N5)C3)c(F)c2)s1` [Example 260, 6-((3-((4-(2,4-dimethyl-1,3-thiazol-5-yl)-2-fluorophenoxy)methyl)azetidin-1-yl)carbonyl)-7-fluoro-2H-1,4-benzoxazin-3(4H)-one] was tested, and the inhibition at 10 µM was 100%.
Compound `O=C1COc2cc(F)c(C(=O)N3CC(COc4ccc(-c5ccncc5)cc4F)C3)cc2N1` [Example 239, 7-fluoro-6-((3-((2-fluoro-4-(pyridin-4-yl)phenoxy)methyl)azetidin-1-yl)carbonyl)-2H-1,4-benzoxazin-3(4H)-one] has an inhibition at 10 µM of 100%.
With `O=C1COc2ccc(C(=O)N3CCC(C(F)(F)c4ccc(F)cc4)CC3)cc2N1` [Example 355, 6-((4-(difluoro(4-fluorophenyl)methyl)piperidin-1-yl)carbonyl)-2H-1,4-benzoxazin-3(4H)-one] the inhibition at 10 µM was 101%.
With `O=C1COc2cc(F)c(C(=O)N3CC(COc4ccc5c(c4)CCC5)C3)cc2N1` [Example 154, 6-((3-((2,3-dihydro-1H-inden-5-yloxy)methyl)azetidin-1-yl)carbonyl)-7-fluoro-2H-1,4-benzoxazin-3(4H)-one] the inhibition at 10 µM was 95%.
For `N#Cc1cc(Cl)ccc1OCC1CCN(C(=O)c2ccc3c(c2)NC(=O)CO3)CC1` [Example 33, 5-chloro-2-((1-((3-oxo-3,4-dihydro-2H-1,4-benzoxazin-6-yl)carbonyl)piperidin-4-yl)methoxy)benzonitrile], the inhibition at 10 µM was 99%.
`CC(C)(C)c1ccccc1OCC1CN(C(=O)c2cc3c(cc2F)OCC(=O)N3)C1` [Example 167, 6-((3-((2-tert-butylphenoxy)methyl)azetidin-1-yl)carbonyl)-7-fluoro-2H-1,4-benzoxazin-3(4H)-one] was tested, and the inhibition at 10 µM was 100%.
In the case of `O=C1COc2ccc(C(=O)N3CCC(COc4ccc(Cl)c(F)c4)CC3)cc2N1` [Example 42, 6-((4-((4-chloro-3-fluorophenoxy)methyl)piperidin-1-yl)carbonyl)-2H-1,4-benzoxazin-3(4H)-one], the inhibition at 10 µM was 99%.
`CC1(COc2ccc(F)cc2Cl)CN(C(=O)c2cc3c(cc2F)OCC(=O)N3)C1` [Example 283, 6-((3-((2-chloro-4-fluorophenoxy)methyl)-3-methylazetidin-1-yl)carbonyl)-7-fluoro-2H-1,4-benzoxazin-3(4H)-one] was tested, and the inhibition at 10 µM was 101%.
`O=C1COc2cc(F)c(C(=O)N3CC(COCC4CC4)C3)cc2N1` [Example 225, 6-((3-((cyclopropylmethoxy)methyl)azetidin-1-yl)carbonyl)-7-fluoro-2H-1,4-benzoxazin-3(4H)-one] was tested, and the inhibition at 10 µM was 85%.
For `O=C1COc2ccc(C(=O)N3CCC(COc4ccc(Cl)cc4Cl)CC3)cc2N1` [Example 23, 6-((4-((2,4-dichlorophenoxy)methyl)piperidin-1-yl)carbonyl)-2H-1,4-benzoxazin-3(4H)-one], the inhibition at 10 µM was 100%.
With `Cc1cccc(-c2cc(Cl)ccc2OCC2CN(C(=O)c3cc4c(cc3F)OCC(=O)N4)C2)n1` [Example 197, 6-((3-((4-chloro-2-(6-methylpyridin-2-yl)phenoxy)methyl)azetidin-1-yl)carbonyl)-7-fluoro-2H-1,4-benzoxazin-3(4H)-one] the inhibition at 10 µM was 104%.
With `O=C1COc2cc(F)c(C(=O)N3CC(COc4ccc(OC(F)F)cc4)C3)cc2N1` [Example 270, 6-((3-((4-(difluoromethoxy)phenoxy)methyl)azetidin-1-yl)carbonyl)-7-fluoro-2H-1,4-benzoxazin-3(4H)-one] the inhibition at 10 µM was 101%.
`O=C1COc2ccc(C(=O)N3CCC(COc4ccccc4F)CC3)cc2N1` [Example 94, 6-((4-((2-fluorophenoxy)methyl)piperidin-1-yl)carbonyl)-2H-1,4-benzoxazin-3(4H)-one] showed an inhibition at 10 µM of 97%.
With `CC(C)c1ccc(OCC2CN(C(=O)c3cc4c(cc3F)OCC(=O)N4)C2)cc1` [Example 159, 7-fluoro-6-((3-((4-isopropylphenoxy)methyl)azetidin-1-yl)carbonyl)-2H-1,4-benzoxazin-3(4H)-one] the inhibition at 10 µM was 103%.
With `Cc1nccc(-c2ccccn2)c1OCC1CN(C(=O)c2cc3c(cc2F)OCC(=O)N3)C1` [Example 177, 7-fluoro-6-((3-(((2′-methyl-2,4′-bipyridin-3′-yl)oxy)methyl)azetidin-1-yl)carbonyl)-2H-1,4-benzoxazin-3(4H)-one] the inhibition at 10 µM was 91%.
`O=C1COc2cc(F)c(C(=O)N3CC(COc4ccc5c(c4)OCC5)C3)cc2N1` [Example 273, 6-((3-((2,3-dihydro-1-benzofuran-6-yloxy)methyl)azetidin-1-yl)carbonyl)-7-fluoro-2H-1,4-benzoxazin-3(4H)-one] showed an inhibition at 10 µM of 101%.
For `O=C1COc2cc(F)c(C(=O)N3CC(COc4ccc(-c5ccc(F)nc5)cc4F)C3)cc2N1` [Example 238, 7-fluoro-6-((3-((2-fluoro-4-(6-fluoropyridin-3-yl)phenoxy)methyl)azetidin-1-yl)carbonyl)-2H-1,4-benzoxazin-3(4H)-one], the inhibition at 10 µM was 99%.
`Cn1nccc1-c1cc(Cl)ccc1OCC1CN(C(=O)c2cc3c(cc2F)OCC(=O)N3)C1` [Example 218, 6-((3-((4-chloro-2-(1-methyl-1H-pyrazol-5-yl)phenoxy)methyl)azetidin-1-yl)carbonyl)-7-fluoro-2H-1,4-benzoxazin-3(4H)-one] gave an inhibition at 10 µM of 99%.
`O=C1COc2cc(F)c(C(=O)N3CC(COc4ccc(C(F)F)cc4F)C3)cc2N1` [Example 288, 6-((3-((4-(difluoromethyl)-2-fluorophenoxy)methyl)azetidin-1-yl)carbonyl)-7-fluoro-2H-1,4-benzoxazin-3(4H)-one] was tested, and the inhibition at 10 µM was 101%.
`Cc1cc2c(cc1C(=O)N1CCC(COc3ccc(F)cc3Cl)CC1)NC(=O)CO2` [Example 89, 6-((4-((2-chloro-4-fluorophenoxy)methyl)piperidin-1-yl)carbonyl)-7-methyl-2H-1,4-benzoxazin-3(4H)-one] was tested, and the inhibition at 10 µM was 90%.
For `O=C1COc2cc(F)c(C(=O)N3CCC(COc4ccc(-c5ccccc5)cc4)CC3)cc2N1` [Example 149, 6-((4-((biphenyl-4-yloxy)methyl)piperidin-1-yl)carbonyl)-7-fluoro-2H-1,4-benzoxazin-3(4H)-one], the inhibition at 10 µM was 85%.
`O=C1COc2cc(F)c(C(=O)N3CC(COc4cccc(-c5ccccc5)c4)C3)cc2N1` [Example 110, 6-((3-((biphenyl-3-yloxy)methyl)azetidin-1-yl)carbonyl)-7-fluoro-2H-1,4-benzoxazin-3(4H)-one] gave an inhibition at 10 µM of 97%.
`O=C1COc2cc(F)c(C(=O)N3CC(COc4ccc(Cl)cc4-c4cnn(C5CC5)c4)C3)cc2N1` [Example 215, 6-((3-((4-chloro-2-(1-cyclopropyl-1H-pyrazol-4-yl)phenoxy)methyl)azetidin-1-yl)carbonyl)-7-fluoro-2H-1,4-benzoxazin-3(4H)-one] showed an inhibition at 10 µM of 99%.
With `Cc1nn(C)c(C)c1-c1ccc(OCC2CN(C(=O)c3cc4c(cc3F)OCC(=O)N4)C2)c(F)c1` [Example 251, 7-fluoro-6-((3-((2-fluoro-4-(1,3,5-trimethyl-1H-pyrazol-4-yl)phenoxy)methyl)azetidin-1-yl)carbonyl)-2H-1,4-benzoxazin-3(4H)-one] the inhibition at 10 µM was 100%.
For `O=C1COc2cc(F)c(C(=O)N3CC(OCc4ccc(N5CC(F)C5)cc4Cl)C3)cc2N1` [Example 353, 6-((3-((2-chloro-4-(3-fluoroazetidin-1-yl)benzyl)oxy)azetidin-1-yl)carbonyl)-7-fluoro-2H-1,4-benzoxazin-3(4H)-one], the inhibition at 10 µM was 100%.
`O=C1COc2cc(F)c(C(=O)N3CC(COc4ccc5ncccc5c4)C3)cc2N1` [Example 170, 7-fluoro-6-((3-((quinolin-6-yloxy)methyl)azetidin-1-yl)carbonyl)-2H-1,4-benzoxazin-3(4H)-one] gave an inhibition at 10 µM of 104%.
